Laboratory results reported in patent publication US20070122344A1, “Intraoperative determination of nerve location” (University of Rochester Medical Center Office of Technology …, priority 2005, published 2007).
Entries after “also recorded” stand apart in the source; their conditions may differ. Where two headings read alike, the source gives them in different places.

Columns and labels:
[1] = cited from earlier work
[2] = test system: mammals; details: cited from earlier work
[3] = test system: cavernous nerves; assay: NIRF intraoperative imaging of rat cavernous nerves after injection of ICG into the crura; type: in vivo; details: rats
Source text: The area was examined for retrograde axonal transport at different time points, using a NIRF intraoperative imaging system (SPY®, Novadaq Technologies Inc., Mississauga, Ontario, Canada) that illuminates tissues with a 805 nm laser and captures images with a camera sensitive to infrared fluorescence. Near infrared microscopy and conventional histology were used to confirm the macroscopically identified fluorescent structures. […] (These were specific time points at which examinations were made. […] The fluorescent nerves were then excised.

[4] = mammals, several months after the treatment

CC1(C)C(/C=C/C=C/C=C/C=C2\N(CCCCS(=O)(=O)O)c3ccc4ccccc4c3C2(C)C)=[N+](CCCCS(=O)(=O)[O-])c2ccc3ccccc3c21 [ICG, indocyanine green]
distribution ([1]; after intravenous injection, with normal vascular permeability): remains intravascular | excretion ([1]; after intravenous injection): excreted exclusively by the liver | metabolism in the body ([1]; after intravenous injection): not metabolized | enterohepatic recirculation ([1]; in vivo): does not undergo enterohepatic recirculation | reabsorption from the intestine ([1]; in vivo): not reabsorbed | neuronal toxicity [2, 4]: without evidence of neuronal toxicity | neuronal toxicity ([2]; used in mammals): low evidence of neuronal toxicity | identification of the cavernous nerves by fluorescence ([3]; ICG injected into both crura, examined at 6, 8, 12, 18, 24 and 36 hours post injection, NIRF imaging (SPY)): permitted identification of the nerves; also recorded: nerves were identified in situ | fluorescence of the cavernous nerves at longer post-injection periods ([3]; ICG injected into crura, e.g. 30 days post-injection): not detectable

N=C(N)c1ccc(/C=C/c2ccc(C(=N)N)cc2O)cc1 [Fluorogold]
neuronal toxicity [2, 4]: without evidence of neuronal toxicity | neuronal toxicity ([2]; used in mammals): low evidence of neuronal toxicity

Fast Blue
neuronal toxicity [2, 4]: without evidence of neuronal toxicity | neuronal toxicity ([2]; used in mammals): low evidence of neuronal toxicity
